The numbers were not newly measured in patent publication US20140271465A1, “MATRIX METALLOPROTEASE (MMP) TARGETED AGENTS FOR IMAGING AND THERAPY” (Mallinckrodt LLC, priority 2013, published 2014), which cites them from elsewhere.

One data set deals with T1, rhMMP2 (Homo sapiens, UniProt P08253).
T1 construct: purchased R&D Systems 902-MP
T1 sequence (P08253 110-660): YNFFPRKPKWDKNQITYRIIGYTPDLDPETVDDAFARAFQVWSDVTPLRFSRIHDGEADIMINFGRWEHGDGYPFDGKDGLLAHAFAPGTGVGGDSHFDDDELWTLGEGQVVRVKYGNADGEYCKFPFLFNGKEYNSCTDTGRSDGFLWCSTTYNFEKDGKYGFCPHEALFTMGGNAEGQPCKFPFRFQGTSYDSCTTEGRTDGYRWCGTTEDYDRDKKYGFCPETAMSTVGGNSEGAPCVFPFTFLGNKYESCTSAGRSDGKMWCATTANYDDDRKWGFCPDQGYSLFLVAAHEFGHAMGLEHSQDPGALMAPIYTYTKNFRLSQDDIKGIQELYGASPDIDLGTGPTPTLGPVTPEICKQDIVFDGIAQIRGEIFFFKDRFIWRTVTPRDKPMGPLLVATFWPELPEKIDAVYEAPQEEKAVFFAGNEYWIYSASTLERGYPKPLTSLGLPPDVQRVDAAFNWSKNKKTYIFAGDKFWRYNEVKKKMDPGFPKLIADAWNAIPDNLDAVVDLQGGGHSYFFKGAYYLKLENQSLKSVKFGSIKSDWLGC
The conditions noted are these: control compound, vendor description.

The target of another data set is T2, rhMMP14 (Homo sapiens, UniProt P50281).
T2 construct: purchased R&D Systems 918-MP
The conditions noted are these: control compound, vendor description.

Each structure is given as a SMILES string.

For the molecule `CNC(=O)[C@H](Cc1ccccc1)NC(=O)[C@H](CC(C)C)[C@H](CSc1cccs1)C(=O)NO` [Batimastat], the “Inhibition of MMP-2 (control description)” value on rhMMP2 is listed as “low nM levels”. Besides, the “Inhibition of MMP-14 (control description)” value on rhMMP14 was “low nM levels”.
Regarding `CC(C)ON(CC(=O)NO)S(=O)(=O)c1ccc(-c2ccccc2)cc1` [ARP100], on rhMMP2, the “Inhibition of MMP-2 (control description)” value was “selective MMP-2 inhibitor”. The “Inhibition of MMP-14 (control description)” value on rhMMP14 is listed as “poor inhibitor for MMP-14”.
